These results are taken from patent US9452986B2, “6-heteroaryloxy- or 6-aryloxy-quinoline-2-carboxamides and method of use” (AbbVie Inc., priority 2014, dated 2016).

The structures appear in SMILES notation.

As a reminder, the IC50 is the concentration at which inhibition is half-maximal.

Sequence of recombinant human Nav1.7 (Q15858 whole entry): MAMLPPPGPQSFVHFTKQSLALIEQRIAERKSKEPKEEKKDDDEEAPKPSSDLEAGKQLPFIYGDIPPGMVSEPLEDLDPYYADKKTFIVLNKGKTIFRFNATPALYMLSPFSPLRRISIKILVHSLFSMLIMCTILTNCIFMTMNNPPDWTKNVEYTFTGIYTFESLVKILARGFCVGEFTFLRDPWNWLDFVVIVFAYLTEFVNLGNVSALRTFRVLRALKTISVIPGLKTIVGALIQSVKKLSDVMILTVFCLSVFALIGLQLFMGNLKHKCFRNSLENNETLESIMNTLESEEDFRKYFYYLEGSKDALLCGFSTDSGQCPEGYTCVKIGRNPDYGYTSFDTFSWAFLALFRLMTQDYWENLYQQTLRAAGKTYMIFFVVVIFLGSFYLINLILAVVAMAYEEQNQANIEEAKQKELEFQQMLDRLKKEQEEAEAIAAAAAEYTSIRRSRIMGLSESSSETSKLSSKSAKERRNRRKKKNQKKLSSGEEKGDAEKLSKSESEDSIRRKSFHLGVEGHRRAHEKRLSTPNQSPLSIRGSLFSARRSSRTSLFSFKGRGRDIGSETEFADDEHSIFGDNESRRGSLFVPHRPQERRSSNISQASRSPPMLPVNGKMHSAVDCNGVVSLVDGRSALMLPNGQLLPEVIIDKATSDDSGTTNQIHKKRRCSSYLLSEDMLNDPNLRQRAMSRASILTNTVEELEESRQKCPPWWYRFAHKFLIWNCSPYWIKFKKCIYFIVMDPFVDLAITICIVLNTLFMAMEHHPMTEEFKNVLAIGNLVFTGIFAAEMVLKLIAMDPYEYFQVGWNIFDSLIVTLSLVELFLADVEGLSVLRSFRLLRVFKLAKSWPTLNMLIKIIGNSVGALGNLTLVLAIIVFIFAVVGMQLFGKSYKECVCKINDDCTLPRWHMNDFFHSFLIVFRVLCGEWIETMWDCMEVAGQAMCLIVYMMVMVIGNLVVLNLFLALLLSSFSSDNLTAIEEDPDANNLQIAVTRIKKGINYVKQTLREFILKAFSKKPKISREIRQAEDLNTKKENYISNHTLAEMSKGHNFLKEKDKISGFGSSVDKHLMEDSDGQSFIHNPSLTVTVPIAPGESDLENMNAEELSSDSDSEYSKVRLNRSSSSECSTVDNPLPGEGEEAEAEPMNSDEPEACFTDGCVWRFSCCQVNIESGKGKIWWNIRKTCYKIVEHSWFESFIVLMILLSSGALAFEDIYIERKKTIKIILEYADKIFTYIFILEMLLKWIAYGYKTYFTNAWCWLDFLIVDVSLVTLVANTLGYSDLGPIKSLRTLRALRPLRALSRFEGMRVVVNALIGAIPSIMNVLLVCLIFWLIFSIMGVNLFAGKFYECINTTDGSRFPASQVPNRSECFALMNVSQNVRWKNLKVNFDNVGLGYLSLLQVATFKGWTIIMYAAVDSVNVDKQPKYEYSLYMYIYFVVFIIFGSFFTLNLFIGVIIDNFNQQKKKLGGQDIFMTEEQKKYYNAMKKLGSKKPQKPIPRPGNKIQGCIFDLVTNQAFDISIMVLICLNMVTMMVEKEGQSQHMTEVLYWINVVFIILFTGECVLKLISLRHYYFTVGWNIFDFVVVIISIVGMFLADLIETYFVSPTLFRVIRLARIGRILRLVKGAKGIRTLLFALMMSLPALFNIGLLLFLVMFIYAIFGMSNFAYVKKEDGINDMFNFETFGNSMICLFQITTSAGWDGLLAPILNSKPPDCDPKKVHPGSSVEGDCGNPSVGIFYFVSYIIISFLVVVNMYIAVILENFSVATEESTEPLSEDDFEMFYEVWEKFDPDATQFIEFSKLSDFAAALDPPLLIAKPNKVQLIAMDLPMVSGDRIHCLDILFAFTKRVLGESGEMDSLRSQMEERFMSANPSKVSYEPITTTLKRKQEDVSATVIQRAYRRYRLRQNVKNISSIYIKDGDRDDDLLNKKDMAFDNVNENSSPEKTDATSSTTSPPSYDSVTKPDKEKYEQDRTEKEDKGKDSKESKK

For the first test, the target named is recombinant human Nav1.7 (Homo sapiens (Human), UniProt Q15858). As to the kind of experiment: FRET-based membrane potential assay, recombinant human sodium channel Nav1.7. The settings on record: HEK293 cells stably expressing recombinant human Nav1.7; veratridine + scorpion venom depolarization; read-out: FRET-Membrane Potential Nav1.7 IC50. Format: cell-based. The essentials:
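Channel activation used veratridine at its EC80, set by a dilution curve each experiment, together with Leiurus scorpion venom, added 3 min after compound. Membrane-potential ratio signals from FLIPR Tetra in HEPES-buffered HBSS were fitted to a four-parameter Hill equation for percent inhibition and IC50.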
On to `O=C1CC(NC(=O)c2ccc3cc(Oc4ccc(C(F)(F)F)cn4)ccc3n2)C1` [Example 432, N-(3-oxocyclobutyl)-6-{[5-(trifluoromethyl)pyridin-2-yl]oxy}quinoline-2-carboxamide], for which the IC50 was found to be 2.87 µM.

As to `O=C(NC1CC(N2CCOCC2)C1)c1ccc2cc(Oc3ccc(C(F)(F)F)cn3)ccc2n1` (stereo not shown) [Example 433, N-[3-(morpholin-4-yl)cyclobutyl]-6-{[5-(trifluoromethyl)pyridin-2-yl]oxy}quinoline-2-carboxamide], the IC50 amounted to 0.442 µM.

Consider `CC(C)(O)CNC(=O)c1ccc2cc(Oc3ccc(C(F)F)cn3)ccc2n1` [Example 434, 6-{[5-(difluoromethyl)pyridin-2-yl]oxy}-N-(2-hydroxy-2-methylpropyl)quinoline-2-carboxamide], for which the IC50 came out at 5.58 µM.

As to `O=C(NC1CCC(F)(F)CC1)c1ccc2cc(Oc3ccc(C(F)F)cn3)ccc2n1` [Example 437, N-(4,4-difluorocyclohexyl)-6-{[5-(difluoromethyl)pyridin-2-yl]oxy}quinoline-2-carboxamide], the IC50 turned out to be 3.17 µM.

With `O=C(N[C@@H]1CCN(C(=O)c2ccc3cc(Oc4ccc(C(F)(F)F)cn4)ccc3n2)C1)C1CC1` [Example 439, N-{(3R)-1-[(6-{[5-(trifluoromethyl)pyridin-2-yl]oxy}quinolin-2-yl)carbonyl]pyrrolidin-3-yl}cyclopropanecarboxamide], the IC50 stood at 5.86 µM.

In the case of `O=C(c1ccc2cc(Oc3ccc(C(F)F)cn3)ccc2n1)N1CCN[C@@H](CO)C1` [Example 440, (6-{[5-(difluoromethyl)pyridin-2-yl]oxy}quinolin-2-yl) [(3R)-3-(hydroxymethyl)piperazin-1-yl]methanone], the IC50 is 12.6 µM.

On to `COCCNC(=O)CN(C)C(=O)c1ccc2cc(Oc3ccc(C(F)(F)F)cn3)ccc2n1` [Example 442, N-{2-[(2-methoxyethyl)amino]-2-oxoethyl}-N-methyl-6-{[5-(trifluoromethyl)pyridin-2-yl]oxy}quinoline-2-carboxamide], for which the IC50 came to 5.52 µM.

Regarding `O=C(NCC(=O)N1CCOCC1)c1ccc2cc(Oc3ccc(C(F)(F)F)cn3)ccc2n1` [Example 443, N-[2-(morpholin-4-yl)-2-oxoethyl]-6-{[5-(trifluoromethyl)pyridin-2-yl]oxy}quinoline-2-carboxamide], the 50% inhibitory concentration (IC50) worked out at 0.703 µM.

As for `O=C(NCCC(=O)N1CCOCC1)c1ccc2cc(Oc3ccc(C(F)(F)F)cn3)ccc2n1` [Example 444, N-[3-(morpholin-4-yl)-3-oxopropyl]-6-{[5-(trifluoromethyl)pyridin-2-yl]oxy}quinoline-2-carboxamide], the half-maximal inhibitory concentration (IC50) stood at 1.4 µM.

On to `O=C(NCCC(=O)N1CCCC1)c1ccc2cc(Oc3ccc(C(F)(F)F)cn3)ccc2n1` [Example 445, N-[3-oxo-3-(pyrrolidin-1-yl)propyl]-6-{[5-(trifluoromethyl)pyridin-2-yl]oxy}quinoline-2-carboxamide], for which the IC50 is 0.268 µM.

Regarding `O=C(NCC(=O)N1CCCCC1)c1ccc2cc(Oc3ccc(C(F)(F)F)cn3)ccc2n1` [Example 447, N-[2-oxo-2-(piperidin-1-yl)ethyl]-6-{[5-(trifluoromethyl)pyridin-2-yl]oxy}quinoline-2-carboxamide], the IC50 came out at 0.69 µM.

Consider `CN1CC(NC(=O)c2ccc3cc(Oc4ccc(C(F)(F)F)cn4)ccc3n2)CC1=O` (stereo not shown) [Example 448, N-(1-methyl-5-oxopyrrolidin-3-yl)-6-{[5-(trifluoromethyl)pyridin-2-yl]oxy}quinoline-2-carboxamide], for which the IC50 was 0.371 µM.

As to `CN1CCN(C(=O)c2ccc3cc(Oc4ccc(C(F)(F)F)cn4)ccc3n2)CC1=O` [Example 450, 1-methyl-4-[(6-{[5-(trifluoromethyl)pyridin-2-yl]oxy}quinolin-2-yl)carbonyl]piperazin-2-one], the IC50 was determined as 3.58 µM.

In the case of `CN(C)C(=O)[C@@H]1CCCN1C(=O)c1ccc2cc(Oc3ccc(C(F)(F)F)cn3)ccc2n1` [Example 451, N,N-dimethyl-1-[(6-{[5-(trifluoromethyl)pyridin-2-yl]oxy}quinolin-2-yl)carbonyl]-L-prolinamide], the IC50 was 5.23 µM.

On to `CN(CC(=O)NC1CC1)C(=O)c1ccc2cc(Oc3ccc(C(F)(F)F)cn3)ccc2n1` [Example 452, N-[2-(cyclopropylamino)-2-oxoethyl]-N-methyl-6-{[5-(trifluoromethyl)pyridin-2-yl]oxy}quinoline-2-carboxamide], for which the IC50 stood at 3.21 µM.

For the compound `CCN(CC)C(=O)CCNC(=O)c1ccc2cc(Oc3ccc(C(F)(F)F)cn3)ccc2n1` [Example 453, N-[3-(diethylamino)-3-oxopropyl]-6-{[5-(trifluoromethyl)pyridin-2-yl]oxy}quinoline-2-carboxamide], the IC50 was determined as 0.405 µM.

For the compound `CC(C)NC(=O)CN(C)C(=O)c1ccc2cc(Oc3ccc(C(F)(F)F)cn3)ccc2n1` [Example 454, N-[2-(isopropylamino)-2-oxoethyl]-N-methyl-6-{[5-(trifluoromethyl)pyridin-2-yl]oxy}quinoline-2-carboxamide], the IC50 was found to be 3.14 µM.

With `O=C(NCC(=O)N1CCCC1)c1ccc2cc(Oc3ccc(C(F)F)cn3)ccc2n1` [Example 456, 6-{[5-(difluoromethyl)pyridin-2-yl]oxy}-N-[2-oxo-2-(pyrrolidin-1-yl)ethyl]quinoline-2-carboxamide], the IC50 came to 0.886 µM.

For `COCCNC(=O)CN(C)C(=O)c1ccc2cc(Oc3ccc(C(F)F)cn3)ccc2n1` [Example 457, 6-{[5-(difluoromethyl)pyridin-2-yl]oxy}-N-{2-[(2-methoxyethyl)amino]-2-oxoethyl}-N-methylquinoline-2-carboxamide], the IC50 was over 20 µM.

Still in this test, the particulars now being: read-out: FRET-Membrane Potential Nav1.7 IC50.
With `O=C(c1ccc2cc(Oc3ccc(C(F)F)cn3)ccc2n1)N1CCNCC1C(F)F` (stereo not shown) [Example 430, [2-(difluoromethyl)piperazin-1-yl](6-{[5-(difluoromethyl)pyridin-2-yl]oxy}quinolin-2-yl)methanone], the IC50 came out at 3.45 µM.

On to `O=C(c1ccc2cc(Oc3ccc(C(F)F)cn3)ccc2n1)N1CCC(N2CCOCC2)CC1` [Example 435, (6-{[5-(difluoromethyl)pyridin-2-yl]oxy}quinolin-2-yl)[4-(morpholin-4-yl)piperidin-1-yl]methanone], for which the IC50 worked out at 12.6 µM.

Take `CC(=O)N[C@@H]1CCN(C(=O)c2ccc3cc(Oc4ccc(C(F)(F)F)cn4)ccc3n2)C1` [Example 438, N-{(3R)-1-[(6-{[5-(trifluoromethyl)pyridin-2-yl]oxy}quinolin-2-yl)carbonyl]pyrrolidin-3-yl}acetamide]: the IC50 was found to be 12.5 µM.

In the case of `CCN(CC)C(=O)CNC(=O)c1ccc2cc(Oc3ccc(C(F)(F)F)cn3)ccc2n1` [Example 446, N-[2-(diethylamino)-2-oxoethyl]-6-{[5-(trifluoromethyl)pyridin-2-yl]oxy}quinoline-2-carboxamide], the IC50 was determined as 0.166 µM.

Take `O=C(NCCC(=O)N1CCCCC1)c1ccc2cc(Oc3ccc(C(F)(F)F)cn3)ccc2n1` [Example 449, N-[3-oxo-3-(piperidin-1-yl)propyl]-6-{[5-(trifluoromethyl)pyridin-2-yl]oxy}quinoline-2-carboxamide]: the IC50 worked out at 0.789 µM.

As to `CNC(=O)[C@@H]1CCCN1C(=O)c1ccc2cc(Oc3ccc(C(F)F)cn3)ccc2n1` [Example 455, 1-[(6-{[5-(difluoromethyl)pyridin-2-yl]oxy}quinolin-2-yl)carbonyl]-N-methyl-L-prolinamide], the IC50 was over 20 µM.
